Measured values published in ChEMBL document CHEMBL1133082, “Adenosine kinase inhibitors. 2. Synthesis, enzyme inhibition, and antiseizure activity of diaryltubercidin analogues” (J Med Chem, 2000).

Experiments:
Adenosine kinase = Adenosine kinase (Homo sapiens, UniProt P55263); experiment: Inhibition of recombinant human adenosine kinase
Rattus norvegicus [1] = experiment: Tested for inhibition of MES-induced seizures in rat after ip administration of 5 mg/kg; format: functional; details: route intraperitoneal
Rattus norvegicus [2] = experiment: Intraperitoneal effective dose required for inhibition of MES-induced seizures in rat; format: functional; details: ip

Adenosine kinase, sequence (P55263 whole entry): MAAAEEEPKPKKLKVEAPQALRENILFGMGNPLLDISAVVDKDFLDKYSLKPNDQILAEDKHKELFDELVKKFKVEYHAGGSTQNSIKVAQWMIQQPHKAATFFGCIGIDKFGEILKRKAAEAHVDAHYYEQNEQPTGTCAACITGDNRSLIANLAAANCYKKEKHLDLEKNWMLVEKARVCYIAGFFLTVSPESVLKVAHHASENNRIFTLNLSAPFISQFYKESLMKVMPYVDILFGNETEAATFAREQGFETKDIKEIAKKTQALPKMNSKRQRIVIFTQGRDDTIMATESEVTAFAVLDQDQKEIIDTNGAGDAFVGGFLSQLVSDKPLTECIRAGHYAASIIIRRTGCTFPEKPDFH

Compound	IC50 (Adenosine kinase) [nM]	inhibition in vivo at 5 mg/kg (Rattus norvegicus [1]) [%]	ED50 (Rattus norvegicus [2]) [mg/kg]
C[C@H]1O[C@@H](n2cc(-c3ccccc3)c3c(NCc4ccccc4)ncnc32)[C@H](O)[C@@H]1O	30	–	–
C[C@H]1O[C@@H](n2cc(I)c3c(NCc4ccccc4)ncnc32)[C@H](O)[C@@H]1O	800	–	–
C[C@H]1O[C@@H](n2cc(-c3ccccc3)c3c(Nc4ccc(C#N)cc4)ncnc32)[C@H](O)[C@@H]1O	14	87	–
OC[C@H]1O[C@@H](n2cc(-c3ccccc3)c3c(Nc4ccccc4)ncnc32)C[C@@H]1O	300	–	–
C[C@H]1O[C@@H](n2cc(-c3ccccc3)c3c(Nc4ccc(F)cc4)ncnc32)[C@H](O)[C@@H]1O	–	73	–
OC[C@H]1O[C@@H](n2ccc3c(Nc4ccccc4)ncnc32)[C@H](O)[C@@H]1O	1250	–	–
C[C@H]1O[C@@H](n2cc(-c3ccccc3)c3c(Nc4ccc(O)cc4)ncnc32)[C@H](O)[C@@H]1O	1	35	5.8
COc1ccc(Nc2ncnc3c2c(-c2ccccc2)cn3[C@@H]2O[C@H](C)[C@@H](O)[C@H]2O)cc1	6	93	1
